Source: patent US20220281848A1, “PYRAZOLE-SUBSTITUTED PYRROLIDINONES AS HERBICIDES” (FMC Corporation, priority 2019, published 2022)

Tested on: plants
Test: Test D pre-emergence, other plants of Tables D1 and D3
Type: in vivo
Details: pre-emergence, 100=total damage, 0=no damage
Experimental: A formulation containing 50 g/L of the test chemical was prepared by dissolving the active ingredient in a mixture of organic solvents and emulsifier, details of which are provided in the table. This formulation was then mixed with a small, variable amount of acetone to aid dissolution, before addition of a 0.2% v/v aqueous solution of an adjuvant, as the aqueous diluent, to form an aqueous spray solution which contains a predetermined concentration of the active ingredient.
This aqueous spray solution was then sprayed onto plants including maize and wheat that had been seed treated with a herbicide safener, after one day's cultivation (for pre-emergence) or after about 12 days' cultivation (for post-emergence). The plants were grown from seeds sown in standard soil, placed in a glasshouse under controlled conditions (at 24/18° C. or 20/16° C., day/night; 16 h light; 65% humidity). After spray application the plants were then grown in a glasshouse under the same conditions and watered twice daily. After 15 d for post-emergence and 20 DAA for pre-emergence the test was evaluated (100=total damage to plant; 0=no damage to plant).

CN1CC(c2cc(C(F)(F)F)n(C)n2)C(C(=O)Nc2ccc(F)cc2F)C1=O (racemic) [Compound 6]
damage to plant, ALOMY (rate 15, 20 DAA): 0 | damage to plant, AVEFA (rate 15, 20 DAA): 0 | damage to plant, BEAVA (rate 15, 20 DAA): 0 | damage to plant, BROTE (rate 15, 20 DAA): 0 | damage to plant, BRSNN (rate 15, 20 DAA): 0 | damage to plant, CHEAL (rate 15, 20 DAA): 0 | damage to plant, GALAP (rate 15, 20 DAA): 0 | damage to plant, HORVW (rate 15, 20 DAA): 0 | damage to plant, KCHSC (rate 15, 20 DAA): 0 | damage to plant, LOLPE (rate 15, 20 DAA): 0 | damage to plant, POAAN (rate 15, 20 DAA): 0 | damage to plant, POLCO (rate 15, 20 DAA): 0 | damage to plant, SINAR (rate 15, 20 DAA): 0 | damage to plant, STEME (rate 15, 20 DAA): 0 | damage to plant, VERPE (rate 15, 20 DAA): 0 | damage to plant, ALOMY (rate 30, 20 DAA): 0 | damage to plant, AVEFA (rate 30, 20 DAA): 0 | damage to plant, BEAVA (rate 30, 20 DAA): 0 | damage to plant, BROTE (rate 30, 20 DAA): 0 | damage to plant, BRSNN (rate 30, 20 DAA): 0 | damage to plant, CHEAL (rate 30, 20 DAA): 0 | damage to plant, GALAP (rate 30, 20 DAA): 0 | damage to plant, HORVW (rate 30, 20 DAA): 0 | damage to plant, KCHSC (rate 30, 20 DAA): 0 | damage to plant, LOLPE (rate 30, 20 DAA): 0 | damage to plant, POAAN (rate 30, 20 DAA): 0 | damage to plant, POLCO (rate 30, 20 DAA): 0 | damage to plant, SINAR (rate 30, 20 DAA): 0 | damage to plant, STEME (rate 30, 20 DAA): 0 | damage to plant, VERPE (rate 30, 20 DAA): 0 | damage to plant, ALOMY (rate 60, 20 DAA): 0 | damage to plant, AVEFA (rate 60, 20 DAA): 0 | damage to plant, BEAVA (rate 60, 20 DAA): 0 | damage to plant, BROTE (rate 60, 20 DAA): 0 | damage to plant, BRSNN (rate 60, 20 DAA): 0 | damage to plant, CHEAL (rate 60, 20 DAA): 0 | damage to plant, GALAP (rate 60, 20 DAA): 0 | damage to plant, HORVW (rate 60, 20 DAA): 0 | damage to plant, KCHSC (rate 60, 20 DAA): 0 | damage to plant, LOLPE (rate 60, 20 DAA): 0 | damage to plant, POAAN (rate 60, 20 DAA): 0 | damage to plant, POLCO (rate 60, 20 DAA): 0 | damage to plant, SINAR (rate 60, 20 DAA): 0 | damage to plant, STEME (rate 60, 20 DAA): 0 | damage to plant, VERPE (rate 60, 20 DAA): 0 | damage to plant, ALOMY (rate 130, 20 DAA): 0 | damage to plant, AVEFA (rate 130, 20 DAA): 0 | damage to plant, BEAVA (rate 130, 20 DAA): 0 | damage to plant, BROTE (rate 130, 20 DAA): 0 | damage to plant, BRSNN (rate 130, 20 DAA): 0 | damage to plant, CHEAL (rate 130, 20 DAA): 0 | damage to plant, GALAP (rate 130, 20 DAA): 0 | damage to plant, HORVW (rate 130, 20 DAA): 0 | damage to plant, KCHSC (rate 130, 20 DAA): 0 | damage to plant, LOLPE (rate 130, 20 DAA): 0 | damage to plant, POAAN (rate 130, 20 DAA): 10 | damage to plant, POLCO (rate 130, 20 DAA): 0 | damage to plant, SINAR (rate 130, 20 DAA): 0 | damage to plant, STEME (rate 130, 20 DAA): 0 | damage to plant, VERPE (rate 130, 20 DAA): 0 | damage to plant, ALOMY (rate 250, 20 DAA): 0 | damage to plant, AVEFA (rate 250, 20 DAA): 0 | damage to plant, BEAVA (rate 250, 20 DAA): 0 | damage to plant, BROTE (rate 250, 20 DAA): 0 | damage to plant, BRSNN (rate 250, 20 DAA): 0 | damage to plant, CHEAL (rate 250, 20 DAA): 10 | damage to plant, GALAP (rate 250, 20 DAA): 10 | damage to plant, HORVW (rate 250, 20 DAA): 10 | damage to plant, KCHSC (rate 250, 20 DAA): 0 | damage to plant, LOLPE (rate 250, 20 DAA): 20 | damage to plant, POAAN (rate 250, 20 DAA): 20 | damage to plant, POLCO (rate 250, 20 DAA): 0 | damage to plant, SINAR (rate 250, 20 DAA): 0 | damage to plant, STEME (rate 250, 20 DAA): 10 | damage to plant, VERPE (rate 250, 20 DAA): 10 | damage to plant, ALOMY (rate 500, 20 DAA): 40 | damage to plant, AVEFA (rate 500, 20 DAA): 20 | damage to plant, BEAVA (rate 500, 20 DAA): 0 | damage to plant, BROTE (rate 500, 20 DAA): 0 | damage to plant, BRSNN (rate 500, 20 DAA): 0 | damage to plant, CHEAL (rate 500, 20 DAA): 20 | damage to plant, GALAP (rate 500, 20 DAA): 20 | damage to plant, HORVW (rate 500, 20 DAA): 20 | damage to plant, KCHSC (rate 500, 20 DAA): 10 | damage to plant, LOLPE (rate 500, 20 DAA): 30 | damage to plant, POAAN (rate 500, 20 DAA): 70 | damage to plant, POLCO (rate 500, 20 DAA): 0 | damage to plant, SINAR (rate 500, 20 DAA): 10 | damage to plant, STEME (rate 500, 20 DAA): 10 | damage to plant, VERPE (rate 500, 20 DAA): 20
